The text below walks through data of EP3421483A1, “NOVEL STEROIDAL 17-BETA HETEROARYL COMPOUNDS AS INHIBITORS OF AKR1C3” (Bayer Pharma Aktiengesellschaft, priority 2017, dated 2019).

Several values for one entry are separate records, joined by “and”; a condition that tells them apart may be missing. Identical values can stand only once. Like-named read-outs stand apart in the source and are kept apart here.

Usually IC50 stands for the point on the concentration scale where inhibition reaches its midpoint.

This test has as its target T1, recombinant human AKR1C3 (aldo-keto reductase family 1 member C3) (Homo sapiens, UniProt P42330).
T1 construct: GST (cleaved yes); made in house; host or cells: E. coli
T1 sequence (P42330 1-323): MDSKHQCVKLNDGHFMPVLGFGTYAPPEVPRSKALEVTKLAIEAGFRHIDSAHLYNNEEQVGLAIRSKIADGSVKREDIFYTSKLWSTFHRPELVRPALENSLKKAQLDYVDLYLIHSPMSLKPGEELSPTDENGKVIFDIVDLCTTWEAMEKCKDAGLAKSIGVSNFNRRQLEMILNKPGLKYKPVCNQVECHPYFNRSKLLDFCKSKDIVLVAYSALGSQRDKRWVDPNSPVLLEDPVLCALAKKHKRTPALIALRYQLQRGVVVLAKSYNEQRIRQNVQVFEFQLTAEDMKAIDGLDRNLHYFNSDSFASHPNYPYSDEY
The test can be described thus: AKR1C3 enzyme inhibition assay (fluorescence; NADPH-dependent reduction of coumberone to coumberol). It is filed as biochemical. The method, then: The AKR1C3-inhibitory action of the substances of this invention was measured in the AKR1C3 assay described in the paragraphs which follow. Essentially, the enzyme activity is measured by quantifying the coumberol formed from coumberone ([…]., and […]. AM. CHEM. SOC. 130, 14123-14128 (2008) […]., Bauman, D.R., Penning, T.M., and […]., Proc. Natl. Acad. Sci. USA 103, 13304 - 13309 (2006)). In this assay, the increase in the highly fluorescent coumberol can be determined by NADPH (nicotinamide adenine dinucleotide phosphate)-dependent reduction of the nonfluorescent coumberone by AKR1C3. […] NM_003739). This was expressed as the GST (glutathione S-transferase) fusion protein in E. coli and purified by means of glutathione-Sepharose affinity chromatography. The GST was removed by thrombin digestion with subsequent size exclusion chromatography (Dufort, I., Rheault, P., Huang, XF., Soucy, P., and Luu-The, V., Endocrinology 140, 568-574 (1999)). […] The concentration of the AKR1C3 was matched to the respective activity of the enzyme preparation and set such that the assay worked within the linear range. Typical concentrations were in the region of 1 nM. The reaction was stopped by adding 5 μl of a stop solution consisting of the inhibitor EM-1404 [F. Labrie et al. US Patent 6,541,463, 2003] (2 μM → final concentration in assay volume […] is 1 μM). Subsequently, the fluorescence of coumberol was measured at 520 nm (excitation at 380 nm) with a suitable measuring instrument (Pherastar from BMG Labtechnologies). […] As described, the pharmacological substances claimed were tested for their inhibitory effect on the AKR1C3 enzyme (see Table 3). […] Table 3: Inhibition of AKR1C3 by the inventive compounds (for some of the compounds, the values for two experimental determinations are reported)

[1] abbreviates: 10 µM NADPH, 0.3 µM coumberone, 15 min preincubation, 90 min at 22°C, pH 7, 4-parameter fit, for some compounds two experimental determinations are given, read-out: AKR1C3 enzyme inhibition IC50.

On to `CN(CCC(=O)O)C(=O)c1ccc2c(c1)CC[C@@H]1[C@@H]2CC[C@]2(C)[C@@H](c3cncc(F)c3)CC[C@@H]12` [Example 1, N-{[(17beta)-17-(5-fluoropyridin-3-yl)estra-1,3,5(10)-trien-3-yl]carbonyl}-N-methyl-beta-alanine], for which the IC50 under setting [1] was 19.2 nM and 23.7 nM. On the same count and under the same terms, with `C[C@]12CC[C@@H]3c4ccc(C(=O)NCC(=O)O)cc4CC[C@H]3[C@@H]1CC[C@@H]2c1cncc(F)c1` [Example 2, N-[[(17beta)-17-(5-fluoropyridin-3-yl)estra-1,3,5(10)-trien-3-yl]carbonyl}glycine] the figure was 26.4 nM and 28.9 nM; with `C[C@]12CC[C@@H]3c4ccc(C(=O)NCCC(=O)O)cc4CC[C@H]3[C@@H]1CC[C@@H]2c1cncc(F)c1` [Example 3, N-{[(17beta)-17-(5-fluoropyridin-3-yl)estra-1,3,5(10)-trien-3-yl]carbonyl}-beta-alanine], 5.47 nM and 9.35 nM. Take `C[C@]12CC[C@@H]3c4ccc(C(=O)NCCCC(=O)O)cc4CC[C@H]3[C@@H]1CC[C@@H]2c1cncc(F)c1` [Example 4, 4-({[(17beta)-17-(5-fluoropyridin-3-yl)estra-1,3,5(10)-trien-3-yl]carbonyl}amino)butanoic acid]: for the setting “read-out: AKR1C3 enzyme inhibition IC50, 10 µM NADPH, 0.3 µM coumberone, 15 min preincubation, 90 min at 22°C, pH 7, 4-parameter fit, for some compounds two experimental determinations are given”, the IC50 is 7.79 nM and 6.76 nM. On to `CC(C)(CNC(=O)c1ccc2c(c1)CC[C@@H]1[C@@H]2CC[C@]2(C)[C@@H](c3cncc(F)c3)CC[C@@H]12)C(=O)O` [Example 5, 3-([[(17beta)-17-(5-fluoropyridin-3-yl)estra-1,3,5(10)-trien-3-yl]carbonyl}amino)-2,2-dimethylpropanoic acid], for which the IC50 was 13.8 nM and 13.1 nM. With `COc1cncc([C@H]2CC[C@H]3[C@@H]4CCc5cc(C(=O)N(C)CCC(=O)O)ccc5[C@H]4CC[C@]23C)c1` [Example 6, N-{[(17beta)-17-(5-methoxypyridin-3-yl)estra-1,3,5(10)-trien-3-yl]carbonyl}-N-methyl-beta-alanine], the IC50 under setting [1] is 67.6 nM and 82.1 nM.

For `CN(CCC(=O)O)C(=O)c1ccc2c(c1)CC[C@@H]1[C@@H]2CC[C@]2(C)[C@@H](c3cncc(C(F)(F)F)c3)CC[C@@H]12` [Example 7, N-methyl-N-{[(17beta)-17-[5-(trifluoromethyl)pyridin-3-yl]estra-1,3,5(10)-trien-3-yl]carbonyl}-beta-alanine], the IC50 under setting [1] is 35 nM and 44.1 nM.

`CN(CC(=O)O)C(=O)c1ccc2c(c1)CC[C@@H]1[C@@H]2CC[C@]2(C)[C@@H](c3cncc(C(F)(F)F)c3)CC[C@@H]12` [Example 8, N-methyl-N-[[(17beta)-17-[5-(trifluoromethyl)pyridin-3-yl]estra-1,3,5(10)-trien-3-yl]carbonyl}glycine]: the 50% inhibitory concentration (IC50) under setting [1] was 48.5 nM and 76.2 nM.

Take `C[C@]12CC[C@@H]3c4ccc(C(=O)NCCC(=O)O)cc4CC[C@H]3[C@@H]1CC[C@@H]2c1cncc(C(F)(F)F)c1` [Example 9, N-{[(17beta)-17-[5-(trifluoromethyl)pyridin-3-yl]estra-1,3,5(10)-trien-3-yl]carbonyl}-beta-alanine]: the IC50 under setting [1] was 16.9 nM and 26 nM. Regarding `CN(CCC(=O)O)C(=O)c1ccc2c(c1)CC[C@@H]1[C@@H]2CC[C@]2(C)[C@@H](c3cncnc3)CC[C@@H]12` [Example 10, N-methyl-N-{[(17beta)-17-(pyrimidin-5-yl)estra-1,3,5(10)-trien-3-yl]carbonyl}-beta-alanine], under setting [1], the IC50 is 271 nM and 282 nM. Still for that read-out and setting: with `CN(CCC(=O)O)C(=O)c1ccc2c(c1)CC[C@H]1[C@@H]3[C@H](O)C[C@H](c4cncc(F)c4)[C@@]3(C)CC[C@H]21` [Example 11, N-{[(15beta,17beta)-17-(5-fluoropyridin-3-yl)-15-hydroxyestra-1,3,5(10)-trien-3-yl]carbonyl}-N-methyl-beta-alanine] the figure was 22.4 nM. Same read-out and setting: with `CN(CCC(=O)O)C(=O)c1ccc2c(c1)CC[C@H]1[C@@H]3[C@@H](O)C[C@H](c4cncc(F)c4)[C@@]3(C)CC[C@H]21` [Example 12, N-{[(15alpha,17beta)-17-(5-fluoropyridin-3-yl)-15-hydroxyestra-1,3,5(10)-trien-3-yl]carbonyl}-N-methyl-beta-alanine] the figure was 188 nM.
